13 compounds from patent US12269800B2, “Delivery of therapeutic alkaloid compounds” (priority 2021, dated 2025) can be followed below.

The conditions of data set [1]: 5 µM.
Procedure: 50 uL aliquots of positive controls and test compounds spiked into rat or human plasma (n=2) were added to a pre-warmed plate (37° C.) and shaken at 50 rpm. At each respective time point, the reaction was stopped by adding 500 μL of acetonitrile containing internal standards (100 nM aprozolam, 200 nM caffeine, 100 nM tolbutamide). All samples were vortexed for 10 minutes, followed by centrifugation at 3,220 g for 30 minutes to precipitate proteins. 100 μL of the supernatant is transferred to a new plate. The supernatant will be diluted with ultrapure water according to the LC-MS signal response and peak shape.
The conditions of data set [2]: 5 µM. The source holds these as a separate data set.
A short description of data set [3]: Hydrolysis Assay of Example A2, Condition 1 (SGF with pepsin, pH 1.5, 37° C.). Type of data set: physicochemical.
The mark [4] stands for this setting: SGF with pepsin pH 1.5, 37° C., 0.5 mM, time 1 min.
[5] abbreviates: SGF with pepsin pH 1.5, 37° C., 0.5 mM, time 5 min.
[6] abbreviates: SGF with pepsin pH 1.5, 37° C., 0.5 mM, time 30 min.
Setting [7] is: SGF with pepsin pH 1.5, 37° C., 0.5 mM, time 1 h.
Setting [8] is: SGF with pepsin pH 1.5, 37° C., 0.5 mM, time 4 h.
Where [9] appears, read: SGF with pepsin pH 1.5, 37° C., 0.5 mM, time 24 h.

Where “and” joins values, the source holds several entries; their conditions need not be identical. Equal values may be shown once. Read-outs that look alike come from different tables or passages of the source. Some results are limits rather than exact numbers.

Consider `CCCCCCCC(=O)OC1=C[C@@H]2N(C)CC[C@]2(c2ccc(OC)c(OC)c2)CC1` [Compound 395, (3aS,7aS)-3a-(3,4-dimethoxyphenyl)-1-methyl-2,3,3a,4,5,7a-hexahydro-1H-indol-6-yl octanoate], for which the “Rat Plasma Prodrug (%)” value turned out to be 100.0% in data set [1] (0 min); 0.3% in data set [1] (10 min); 0.1% in data set [1] (30 min); 0.1% in data set [1] (60 min); 0.1% in data set [1] (120 min); 0.1% in data set [1] (240 min). The “Human Plasma Prodrug (%)” value in data set [2] (0 min) is given as 100.0%; in data set [2] (10 min) it was 13.9%; in data set [2] (30 min), 3.5%; in data set [2] (60 min) it was 1.1%; in data set [2] (120 min) it was 0.3%; in data set [2] (240 min), 0.1%.
Regarding `COc1ccc([C@@]23CCC(OC(=O)c4c(C)cc(C)cc4C)=C[C@@H]2N(C)CC3)cc1OC` [Compound 356, (3aS,7aS)-3a-(3,4-dimethoxyphenyl)-1-methyl-2,3,3a,4,5,7a-hexahydro-1H-indol-6-yl 2,4,6-trimethylbenzoate], the “Rat Plasma Prodrug (%)” value was 100.0% in data set [1] (0 min); greater than 99% in data set [1] (10 min); greater than 99% in data set [1] (30 min); greater than 99% in data set [1] (60 min); greater than 99% in data set [1] (120 min); 95.8% in data set [1] (240 min). Further, the “Human Plasma Prodrug (%)” value is given as 100.0% in data set [2] (0 min); greater than 99% in data set [2] (10 min); greater than 99% in data set [2] (30 min); greater than 99% in data set [2] (60 min); greater than 99% in data set [2] (120 min); greater than 99% in data set [2] (240 min).
Consider `COCCCCC(=O)OC1=C[C@@H]2N(C)CC[C@]2(c2ccc(OC)c(OC)c2)CC1` [Compound 404, (3aS,7aS)-3a-(3,4-dimethoxyphenyl)-1-methyl-2,3,3a,4,5,7a-hexahydro-1H-indol-6-yl 5-methoxypentanoate], for which the “Rat Plasma Prodrug (%)” value in data set [1] (0 min) came to 100.0%; in data set [1] (10 min), 0.3%; in data set [1] (30 min), 0.3%; in data set [1] (60 min), 0.3%; in data set [1] (120 min), 0.3%; in data set [1] (240 min), 0.2%. Further, the “Human Plasma Prodrug (%)” value in data set [2] (0 min) stood at 100.0%; in data set [2] (10 min), 22.9%; in data set [2] (30 min) it was 11.5%; in data set [2] (60 min), 7.6%; in data set [2] (120 min), 3.8%; in data set [2] (240 min) it was 1.6%.
Turning to `CCCC(CCC)C(=O)OC1=C[C@@H]2N(C)CC[C@]2(c2ccc(OC)c(OC)c2)CC1` [Compound 427, (3aS,7aS)-3a-(3,4-dimethoxyphenyl)-1-methyl-2,3,3a,4,5,7a-hexahydro-1H-indol-6-yl 2-propylpentanoate], the “Rat Plasma Prodrug (%)” value stood at 100.0% in data set [1] (0 min); 93.6% in data set [1] (10 min); 73.4% in data set [1] (30 min); 43.9% in data set [1] (60 min); 16.0% in data set [1] (120 min); 2.3% in data set [1] (240 min). The “Human Plasma Prodrug (%)” value in data set [2] (0 min) is reported as 100.0%; in data set [2] (10 min), greater than 99%; in data set [2] (30 min) it was 96.6%; in data set [2] (60 min), 96.9%; in data set [2] (120 min) it was 95.5%; in data set [2] (240 min), 91.2%.
Regarding `CCCC(C)(C)C(=O)OC1=C[C@@H]2N(C)CC[C@]2(c2ccc(OC)c(OC)c2)CC1` [Compound 429, (3aS,7aS)-3a-(3,4-dimethoxyphenyl)-1-methyl-2,3,3a,4,5,7a-hexahydro-1H-indol-6-yl 2,2-dimethylpentanoate], the “Rat Plasma Prodrug (%)” value in data set [1] (0 min) was determined as 100.0%; in data set [1] (10 min), 90.4%; in data set [1] (30 min), 83.9%; in data set [1] (60 min) it was 71.9%; in data set [1] (120 min) it was 50.8%; in data set [1] (240 min), 26.2%. The “Human Plasma Prodrug (%)” value in data set [2] (0 min) was 100.0%; in data set [2] (10 min), greater than 99%; in data set [2] (30 min) it was 96.3%; in data set [2] (60 min) it was 95.3%; in data set [2] (120 min), 91.8%; in data set [2] (240 min) it was 84.6%.
Turning to `CCCC(C)C(=O)OC1=C[C@@H]2N(C)CC[C@]2(c2ccc(OC)c(OC)c2)CC1` (stereo partly drawn) [Compound 402, (3aS,7aS)-3a-(3,4-dimethoxyphenyl)-1-methyl-2,3,3a,4,5,7a-hexahydro-1H-indol-6-yl 2-methylpentanoate], the “Rat Plasma Prodrug (%)” value is given as 100.0% in data set [1] (0 min); 3.5% in data set [1] (10 min); 0.1% in data set [1] (30 min); 0.0% in data set [1] (60 min); 0.0% in data set [1] (120 min); 0.0% in data set [1] (240 min). Also, the “Human Plasma Prodrug (%)” value in data set [2] (0 min) was 100.0%; in data set [2] (10 min), 11.3%; in data set [2] (30 min), 2.9%; in data set [2] (60 min), 2.1%; in data set [2] (120 min) it was 1.6%; in data set [2] (240 min), 1.1%.
`CCC(C)C(=O)OC1=C[C@@H]2N(C)CC[C@]2(c2ccc(OC)c(OC)c2)CC1` (stereo partly drawn) [Compound 425, (3aS,7aS)-3a-(3,4-dimethoxyphenyl)-1-methyl-2,3,3a,4,5,7a-hexahydro-1H-indol-6-yl 2-methylbutanoate]: the “Rat Plasma Prodrug (%)” value in data set [1] (0 min) stood at 100.0%; in data set [1] (10 min), 4.4%; in data set [1] (30 min), 0.1%; in data set [1] (60 min), 0.0%; in data set [1] (120 min), 0.0%; in data set [1] (240 min) it was 0.0%. Further, the “Human Plasma Prodrug (%)” value in data set [2] (0 min) is 100.0%; in data set [2] (10 min), 6.5%; in data set [2] (30 min) it was 4.8%; in data set [2] (60 min), 4.0%; in data set [2] (120 min), 3.0%; in data set [2] (240 min), 1.9%.
As for `COc1ccc([C@@]23CCC(OC(=O)CC(C)(C)C)=C[C@@H]2N(C)CC3)cc1OC` [Compound 431, (3aS,7aS)-3a-(3,4-dimethoxyphenyl)-1-methyl-2,3,3a,4,5,7a-hexahydro-1H-indol-6-yl 3,3-dimethylbutanoate], the “Rat Plasma Prodrug (%)” value in data set [1] (0 min) stood at 100.0%; in data set [1] (10 min), 74.5%; in data set [1] (30 min), 45.7%; in data set [1] (60 min), 16.5%; in data set [1] (120 min), 2.3%; in data set [1] (240 min) it was 0.2%. Further, the “Human Plasma Prodrug (%)” value in data set [2] (0 min) is 100.0%; in data set [2] (10 min), 82.1%; in data set [2] (30 min) it was 69.0%; in data set [2] (60 min), 62.8%; in data set [2] (120 min) it was 52.6%; in data set [2] (240 min), 37.4%.
On to “N-[[(3aS,7aS)-3a-(3,4-dimethoxyphenyl)-1-methyl-3,4,7,7a-tetrahydro-2H-indol-6-yl]3,4-dimethoxybenzoate [Compound 302]”, for which the “Condition 1 Conversion (%)” value in data set [3] (setting [4]), in data set [3] (setting [5]), in data set [3] (setting [6]), in data set [3] (setting [7]), in data set [3] (setting [8]) and in data set [3] (setting [9]) was 0% in each case.
Turning to `COc1ccc([C@@]23CCC(=NNCCc4ccccc4)C[C@@H]2N(C)CC3)cc1OC` [Compound 159, N-[[(3aS,7aS)-3a-(3,4-dimethoxyphenyl)-1-methyl-2,3,4,5,7,7a-hexahydroindol-6-ylidene]amino]-2-phenyl-ethanamine], in data set [3] (pH 1.5), the “Condition 1 Conversion (%)” value was 77% and 91% and 100% (2×).
As to `COc1ccc([C@]23CCN(C)[C@H]2CC2(CC3)OCC(c3ccncc3)O2)cc1OC` (stereo partly drawn) [Compound 110, (3′aS,7′aS)-3′a-(3,4-dimethoxyphenyl)-1′-methyl-4-(4-pyridyl)spiro[1,3-dioxolane-2,6′-2,3,4,5,7,7a-hexahydroindole]], the “Condition 1 Conversion (%)” value in data set [3] (setting [4]), in data set [3] (setting [5]), in data set [3] (setting [6]), in data set [3] (setting [7]), in data set [3] (setting [8]) and in data set [3] (setting [9]) was 0% in each case.
As for `C=CC1OC2(CC[C@@]3(c4ccc(OC)c(OC)c4)CCN(C)[C@H]3C2)OC1C=C` (stereo partly drawn) [Compound 213, (3′aS,7′aS)-3′a-(3,4-dimethoxyphenyl)-1′-methyl-4,5-divinyl-spiro[1,3-dioxolane-2,6′-2,3,4,5,7,7a-hexahydroindole]], the “Condition 1 Conversion (%)” value in data set [3] (setting [4]), in data set [3] (setting [5]), in data set [3] (setting [6]), in data set [3] (setting [7]), in data set [3] (setting [8]) and in data set [3] (setting [9]) was 0% each time.
For the compound `COc1ccc([C@@]23CCC(=NNC(N)=O)C[C@@H]2N(C)CC3)cc1OC` [Compound 197, [[(3aS,7aS)-3a-(3,4-dimethoxyphenyl)-1-methyl-2,3,4,5,7,7a-hexahydroindol-6-ylidene]amino]urea], the “Condition 1 Conversion (%)” value in data set [3] (pH 1.5) is listed as 0%.
